Source: patent US8629277B2, “Styrenyl 1,2,4-oxadiazole compounds” (Piramal Enterprises Limited, priority 2010, dated 2014)
Read-outs that look alike come from different tables or passages of the source.

What was measured:
[1] = tested on: K562; experiment: Cell proliferation and cytotoxicity CCK-8 assay; assay type: cell-based, human; conditions: Homo sapiens; imatinib sensitive cell line K562; CCK-8, 72 h; read-out: Inhibitory concentrations (IC50) K562
[2] = tested on: TGFβ; experiment: TGFβ assay, Western blot analysis in Ba/F3 Bcr-Abl/T315I cells; assay type: cell-based; conditions: T315I cell line, 3×IC50, 72 h, FIG. 3
Method: TGFβ is a prime candidate for maintaining the CML stem cells in a non-cycling state. […] TGFβ plays a vital role in the preservation of the malignant progenitor population, and is partially responsible for the resistance to treatments targeting Bcr-Abl observed in a proportion of CML patients.
The Western Blot assay was carried out as in reference, Analytical Biochemistry, 1981, 112, 2, 195-203.
Western blot analysis was performed to decipher the mechanism of action of compounds of the present invention. […] The cells were incubated in a humidified incubator for 2-4 h at 37° C. […] Cells were then incubated for 72 h. Following the incubation, cells were harvested, washed with ice-cold phosphate buffered saline (PBS) and lysed with cold Cell Lytic buffer (Sigma Aldrich) supplemented with complete protease inhibitor cocktail (Roche, Germany). The protein extracts were obtained after centrifugation at 14,000 g at 4° C. (30 min). Aliquots of the resulting extracts were analyzed for their protein content using Bradford Reagent (Sigma) as per the manufacturer's instructions. In all the experiments, equivalent amounts of protein (70 μg) were loaded on 7.5%-10% Tris-glycine gels and resolved at 100 V for 2 h in a buffered solution (24.9 mM Tris base, 250 mM glycine, 0.1% SDS (sodium dodecyl sulfate)). […]

[3] = target: T1, Ba/F3 Bcr-Abl/M351T (Homo sapiens, UniProt P00519, M351T, cells depend on it); experiment: Cell proliferation and cytotoxicity CCK-8 assay; assay type: cell-based; conditions: mouse, 72 h
T1 construct: fused on or other part: P11274 (Breakpoint cluster region protein)

[4] = target: T2, Ba/F3 Bcr-Abl/F317L (Homo sapiens, UniProt P00519, F317L, cells depend on it); experiment: Cell proliferation and cytotoxicity CCK-8 assay; assay type: cell-based; conditions: mouse, 72 h
T2 construct: fused on or other part: P11274 (Breakpoint cluster region protein)

[5] = target: T3, Ba/F3 Bcr-Abl/Y253F (Homo sapiens, UniProt P00519, Y253F, cells depend on it); experiment: Cell proliferation and cytotoxicity CCK-8 assay; assay type: cell-based; conditions: mouse, 72 h
T3 construct: fused on or other part: P11274 (Breakpoint cluster region protein)

[6] = target: Ba/F3 Bcr-Abl/T315I (Homo sapiens, UniProt P00519, T315I, cells depend on it)
From the text: Cell Proliferation and Cytotoxicity CCK-8 Assay:
Cell Counting Kit-8 (CCK-8) assay is a sensitive colorimetric assay for the determination of number of viable cells in cell proliferation and cytotoxicity assays. Cell Counting Kit-8 (CCK-8) utilizes Dojindo's highly water-soluble tetrazolium salt. The amount of the formazan dye generated by dehydrogenases in cells is directly proportional to the number of living cells.
The cell lines described in Table 1 were used to test the antiproliferative activity of the compounds of the present invention.
Cells were seeded at a density of ˜5×10^3 per well (0.09 mL) in a transparent 96-well tissue culture plate (NUNC, USA) and allowed to incubate at 37° C., 5% CO2 incubator for 2-6 h. Different concentrations of compounds of the present invention were added to the wells of the culture plate in triplicate. […] Plates were further incubated in an incubator at 37° C. in presence of 5% CO2 for 72 h. 10 μL of the CCK-8 solution was added to each well and plate was incubated for 1-4 h in the incubator. The absorbance was measured at 450 nm using a microplate reader. The percent inhibition and IC50 were calculated in comparison with control values.

[7] = tested on: K562; experiment: Flow cytometric analysis of apoptosis (PI staining); assay type: cell-based, human
Method: Effect of the Compounds of Present Invention in Bcr-Abl Mutated Imatinib Mesylate-Resistant Cell Lines on Cell Cycle and Apoptosis Using Flow Cytometry.
The assay was carried out as in reference, FEBS Letters, 2007, 581, 7, 1329-1334. […] At the end of incubation, cells were harvested by centrifugation at 1000 rpm for 10 minutes, washed with phosphate buffered saline (PBS) and gradually resuspended in 70% ice-cold ethanol (to facilitate the permeablisation of stains). Cell suspension was stored for a minimum period of 4 h before staining with propidium iodide (PI). Fixed cells were stained with PI (80 μg/mL) in presence of RNase A (50 μg/mL), and read on Becton Dickinson FACS Calibur (USA) for cell cycle analysis.

[8] = mouse, ba/f3 bcr-abl/t315i, 72 h
[9] = read-out: Inhibitory concentrations (IC50) Ba/F3 Bcr-Abl/T315I, imatinib resistant cell line, CCK-8, 72 h

| SMILES | IC50 [1] [nM] | p-Smad2 and p-Smad3, effector target molecules of TGFβ signaling [2] | GI50 [3] [nM] | GI50 [4] [nM] | GI50 [5] [nM] | GI50 [6, 8] [nM] | GI50 [6, 9] [nM] | % Apoptosis by Flow Cytometry Analysis ([7]; 3X IC50, 96 h time point) [%] | % Apoptosis by Flow Cytometry Analysis ([7]; 5X IC50, 48 h time point) [%] | % Apoptosis by Flow Cytometry Analysis ([7]; 5X IC50, 96 h time point) [%] |
| --- | --- | --- | --- | --- | --- | --- | --- | --- | --- | --- |
| CCCc1noc(C=Cc2ccc(O)c(O)c2)n1 [Compound of Example 3, 4-[2-(3-Propyl-[1,2,4]oxadiazol-5-yl)-vinyl]-benzene-1,2-diol] | 11000 to 100000 | strongly downregulated | 5700 ± 1700 | 1950 ± 210 | 1500 ± 560 | 2320 ± 680 | < 10000 | 5 | 12.7 | 3.4 |
| Oc1ccc(C=Cc2nc(Cc3ccccc3)no2)cc1O [Compound of Example 4, 4-[2-(3-Benzyl-[1,2,4]oxadiazol-5-yl)-vinyl]-benzene-1,2-diol] | 11000 to 100000 | strongly downregulated | 7500 ± 700 | 2850 ± 350 | 2100 ± 140 | 1880 ± 310 | < 10000 | 10 | 12.2 | 5.2 |
